ChEMBL document CHEMBL1201862, “PubChem BioAssay data set” (2004)
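Five concentrations, 48 hours, 96-well plates. GI50 = concentration required for 50% inhibition of growth.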 Activity calls are given as the source filed them. Rule as the data show it: active = GI50 up to about 1.1 µM and inactive = higher.

Key:
Assay in all cases: growth of human tumour cells (NCI), 48 h
[1] = system: HOP-92
[2] = system: NCI/ADR-RES
[3] = system: SF-295
[4] = system: EKVX
[5] = system: A498
[6] = system: MDA-MB-231
[7] = system: DU-145
[8] = system: UACC-257
[9] = system: NCI-H226
[10] = system: LOX IMVI
[11] = system: OVCAR-8
[12] = system: SW-620
[13] = system: OVCAR-4
[14] = system: SNB-75
[15] = system: NCI-H23
[16] = system: U-251
[17] = system: OVCAR-3
[18] = system: SF-268
[19] = system: SK-OV-3
[20] = system: HOP-62
[21] = system: ACHN
[22] = system: TK-10
[23] = system: SF-539
[24] = system: T47D
[25] = system: SN12C
[26] = system: 786-0
[27] = system: OVCAR-5
[28] = system: COLO 205
[29] = system: BT-549
[30] = system: HCT-15
[31] = system: NCI-H522
[32] = system: KM12
[33] = system: HCT-116
[34] = system: RPMI-8226
[35] = system: SK-MEL-5
[36] = system: MDA-MB-435
[37] = system: HT-29
[38] = system: MOLT-4
[39] = system: Malme-3M
[40] = system: RXF 393
[41] = system: CAKI-1
[42] = system: MDA-N
[43] = system: UO-31
[44] = system: NCI-H460
[45] = system: PC-3
[46] = system: SK-MEL-28
[47] = system: HL-60
[48] = system: CCRF-CEM
[49] = system: SR
[50] = system: K562
[51] = system: SK-MEL-2
[52] = system: MCF7
[53] = system: A549
[54] = system: HCC 2998
[55] = system: UACC-62
[56] = system: IGROV-1
[57] = system: SNB-19
[58] = system: M14

Measured: GI50

O=C(Nc1nc2ccc([N+](=O)[O-])cc2s1)c1cc([N+](=O)[O-])ccc1Cl
inactive: [2] 1.91 µM | [3] 3.4 µM | [4] 2.81 µM | [5] 2.21 µM | [6] 2.55 µM | [7] 3.75 µM | [8] 3.23 µM | [9] 1.31 µM | [10] 2.05 µM | [11] 2.85 µM | [12] 2.29 µM | [13] 5.27 µM | [14] 2.22 µM | [15] 2.3 µM | [16] 2.95 µM | [17] 1.59 µM | [18] 3.41 µM | [19] 2.94 µM | [20] 3 µM | [21] 3.2 µM | [22] 3.8 µM | [23] 2.68 µM | [24] 3.57 µM | [25] 1.52 µM | [26] 2.75 µM | [27] 4.26 µM | [28] 1.68 µM | [29] 2.24 µM | [31] 1.68 µM | [32] 3.4 µM | [33] 1.71 µM | [35] 1.41 µM | [36] 4.04 µM | [37] 2.48 µM | [38] 3.21 µM | [39] 3.01 µM | [40] 3.69 µM | [41] 4.51 µM | [42] 1.48 µM
1.93 µM: [30]
active: [1] 0.675 µM | [34] 0.989 µM

COC(=O)NC(=O)NC(Cc1ccccc1)NC(=O)OCc1ccccc1 (stereo not given)
> 100 µM: [30]
inactive: [43] 30.9 µM | [44] > 100 µM | [45] > 100 µM | [1] 18.1 µM | [2] > 100 µM | [46] > 100 µM | [3] 35.5 µM | [47] > 100 µM | [48] > 100 µM | [4] > 100 µM | [49] > 100 µM | [5] 30.3 µM | [6] 18.5 µM | [7] > 100 µM | [50] > 100 µM | [8] > 100 µM | [9] > 100 µM | [10] > 100 µM | [11] 74.1 µM | [12] > 100 µM | [13] > 100 µM | [14] 20.2 µM | [15] 40.3 µM | [16] 44.1 µM | [17] > 100 µM | [18] 48.1 µM | [19] 18 µM | [51] 63.2 µM | [20] 47.2 µM | [52] > 100 µM | [21] > 100 µM | [22] 45.4 µM | [23] 19.6 µM | [24] > 100 µM | [25] > 100 µM | [26] 37.8 µM | [53] 97.7 µM | [27] > 100 µM | [28] > 100 µM | [29] 31.1 µM | [31] 28.3 µM | [32] > 100 µM | [54] > 100 µM | [33] 39.3 µM | [34] > 100 µM | [55] > 100 µM | [56] 70.8 µM | [35] > 100 µM | [36] > 100 µM | [37] > 100 µM | [38] > 100 µM | [39] > 100 µM | [40] 20.5 µM | [41] > 100 µM | [57] 42.7 µM | [42] > 100 µM | [58] > 100 µM
